{
  "source": "paper PMC8968952",
  "about": "“Modulation of ERCC1-XPF Heterodimerization Inhibition via Structural Modification of Small Molecule Inhibitor Side-Chains” (Frontiers in Oncology, 2022)",
  "key": {"[1]": {"test_system": "ERCC1 or XPF levels in A549 cells", "test": "Western blot of ERCC1 and XPF protein levels (PLA control)", "format": "cell-based, human", "settings": "2 µM, 24 h", "experimental": "page 1: Supplementary Material […] Supplementary Figure 1. ERCC1-XPF mediated cleavage of the stem-loop DNA substrate, in which the FAM signal is quenched, releases the fluorescently tagged octanucleotide. Triplicate measurements of the control (DMSO) and the effect of 10 μM of compounds 4 and 6 on the incision activity is shown. 2 PLA Control Experiments Supplementary Figure 2. A549 cells were seeded in 6-well culture dishes (Thermo Fishes Scientific) at a density of 0.3 X 10^6 cells/well in a final volume of 3 ml. […] The chambers were incubated for 24 h and then washed with PBS and the cells were solubilized with RIPA buffer in the presence of protease inhibitor cocktail (Cell Signaling Technology) plus 2 mM EDTA. […] EpiGentek), XPF (LS- C173159, 1:1000; LifeSpan BioSciences, Seattle, WA) and B-Actin (sc-47778, 1:1000; Santa Cruz) primary antibodies followed by secondary anti-mouse or anti-rabbit secondary HRP-conjugated secondary antibodies. ECL chemiluminescent substrate (Promega) was used to detect the proteins. 3 Cytotoxicity Analysis Supplementary Figure 3. Cytotoxicity assay using colony forming assay 4 HCT-116 Derived XPF Knockout Cells For CRISPR deletion of XPF from HCT-116 cells, the pSpCas9(BB)-2A-GFP (pX458) vector (Addgene plasmid # 48138) was used. The short guide sequence to target XPF exon one was: 5'- [NT] 3' and target XPF exon eight was: 5'- [NT]3'. […]"}, "HCT-116 cells [2]": {"test_system": "HCT-116 cells", "design": "method as in PMID 31369707", "settings": "2 μM, after 24 hours; cited from earlier work"}, "[3]": {"target": "T1, ERCC1-XPF heterodimer in A549 cells (Homo sapiens, UniProt Q92889)", "T1 construct": "endogenous in cells; host or cells: A549", "T1 sequence (Q92889 1-916)": "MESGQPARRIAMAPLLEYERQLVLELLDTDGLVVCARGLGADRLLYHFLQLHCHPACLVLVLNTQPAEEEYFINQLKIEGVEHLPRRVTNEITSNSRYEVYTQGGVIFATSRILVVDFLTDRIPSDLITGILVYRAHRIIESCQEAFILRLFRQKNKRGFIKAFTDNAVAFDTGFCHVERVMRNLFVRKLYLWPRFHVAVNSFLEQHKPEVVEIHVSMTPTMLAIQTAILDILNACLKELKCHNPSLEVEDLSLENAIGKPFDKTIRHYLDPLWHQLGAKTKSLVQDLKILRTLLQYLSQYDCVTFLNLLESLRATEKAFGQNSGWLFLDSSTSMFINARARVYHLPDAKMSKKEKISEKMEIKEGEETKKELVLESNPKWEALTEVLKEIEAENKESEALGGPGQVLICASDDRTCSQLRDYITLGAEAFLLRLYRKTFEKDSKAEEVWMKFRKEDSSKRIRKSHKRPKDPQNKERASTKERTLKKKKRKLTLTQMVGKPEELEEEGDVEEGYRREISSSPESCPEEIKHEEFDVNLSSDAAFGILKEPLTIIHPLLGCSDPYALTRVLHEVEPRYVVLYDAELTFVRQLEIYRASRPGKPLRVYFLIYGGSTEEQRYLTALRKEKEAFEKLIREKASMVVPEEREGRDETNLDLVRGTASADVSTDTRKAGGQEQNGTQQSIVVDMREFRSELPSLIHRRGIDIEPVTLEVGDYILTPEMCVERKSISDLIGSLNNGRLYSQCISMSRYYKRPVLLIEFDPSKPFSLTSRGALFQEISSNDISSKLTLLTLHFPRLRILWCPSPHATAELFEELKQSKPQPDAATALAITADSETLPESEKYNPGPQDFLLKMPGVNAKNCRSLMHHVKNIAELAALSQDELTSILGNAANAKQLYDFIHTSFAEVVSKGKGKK", "design": "method as in PMID 33399940", "settings": "A549 cells treated with 20 μM cisplatin and 1 μM inhibitor; cited from earlier work"}, "HCT-116 cells [4]": {"test_system": "HCT-116 cells", "design": "method as in PMID 31369707", "settings": "1.0 μM compound, 4 J/m^2 UVC; cited from earlier work"}, "HCT-116 cells [5]": {"test_system": "HCT-116 cells", "design": "method as in PMID 31369707", "settings": "1 μM compound, 50 μM cyclophosphamide; cited from earlier work"}, "[6]": {"design": "method as in PMID 31369707", "settings": "cited from earlier work"}, "[7]": {"design": "method as in PMID 31369707", "settings": "cited from earlier work", "remark": "listed apart in the source"}, "CYP2C9": {"target": "CYP2C9 (Homo sapiens, UniProt P11712)", "sequence (P11712 whole entry)": "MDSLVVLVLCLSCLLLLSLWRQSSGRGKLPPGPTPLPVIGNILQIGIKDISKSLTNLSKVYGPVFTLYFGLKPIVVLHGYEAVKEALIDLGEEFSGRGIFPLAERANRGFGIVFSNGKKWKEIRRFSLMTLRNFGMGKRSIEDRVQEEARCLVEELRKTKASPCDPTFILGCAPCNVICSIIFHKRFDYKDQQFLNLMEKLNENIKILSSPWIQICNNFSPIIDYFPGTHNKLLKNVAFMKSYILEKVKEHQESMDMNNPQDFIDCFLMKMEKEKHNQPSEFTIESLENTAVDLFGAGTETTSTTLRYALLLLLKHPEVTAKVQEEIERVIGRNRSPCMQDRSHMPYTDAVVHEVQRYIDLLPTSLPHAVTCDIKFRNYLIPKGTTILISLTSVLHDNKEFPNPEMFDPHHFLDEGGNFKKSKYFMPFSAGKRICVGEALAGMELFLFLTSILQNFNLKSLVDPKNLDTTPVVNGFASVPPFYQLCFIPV", "design": "method as in PMID 31369707", "settings": "read-out: Inhibition of cytochrome P450 (IC50) CYP2C9; cited from earlier work"}, "CYP2C19": {"target": "CYP2C19 (Homo sapiens, UniProt P33261)", "sequence (P33261 whole entry)": "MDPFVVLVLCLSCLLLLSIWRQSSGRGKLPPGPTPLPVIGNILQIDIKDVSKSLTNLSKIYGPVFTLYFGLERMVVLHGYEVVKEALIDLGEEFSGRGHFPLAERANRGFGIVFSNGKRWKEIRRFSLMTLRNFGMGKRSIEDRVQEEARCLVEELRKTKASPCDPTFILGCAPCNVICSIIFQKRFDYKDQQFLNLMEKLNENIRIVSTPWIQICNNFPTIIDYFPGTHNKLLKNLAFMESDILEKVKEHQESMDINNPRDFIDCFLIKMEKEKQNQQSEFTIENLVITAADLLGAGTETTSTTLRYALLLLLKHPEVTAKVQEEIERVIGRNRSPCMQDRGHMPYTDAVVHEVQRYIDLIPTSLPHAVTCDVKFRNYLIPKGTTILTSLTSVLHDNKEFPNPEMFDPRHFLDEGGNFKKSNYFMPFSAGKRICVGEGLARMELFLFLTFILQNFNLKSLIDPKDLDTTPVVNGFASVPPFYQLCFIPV", "design": "method as in PMID 31369707", "settings": "read-out: Inhibition of cytochrome P450 (IC50) CYP2C19; cited from earlier work"}, "CYP2D6": {"target": "CYP2D6 (Homo sapiens, UniProt P10635)", "sequence (P10635 whole entry)": "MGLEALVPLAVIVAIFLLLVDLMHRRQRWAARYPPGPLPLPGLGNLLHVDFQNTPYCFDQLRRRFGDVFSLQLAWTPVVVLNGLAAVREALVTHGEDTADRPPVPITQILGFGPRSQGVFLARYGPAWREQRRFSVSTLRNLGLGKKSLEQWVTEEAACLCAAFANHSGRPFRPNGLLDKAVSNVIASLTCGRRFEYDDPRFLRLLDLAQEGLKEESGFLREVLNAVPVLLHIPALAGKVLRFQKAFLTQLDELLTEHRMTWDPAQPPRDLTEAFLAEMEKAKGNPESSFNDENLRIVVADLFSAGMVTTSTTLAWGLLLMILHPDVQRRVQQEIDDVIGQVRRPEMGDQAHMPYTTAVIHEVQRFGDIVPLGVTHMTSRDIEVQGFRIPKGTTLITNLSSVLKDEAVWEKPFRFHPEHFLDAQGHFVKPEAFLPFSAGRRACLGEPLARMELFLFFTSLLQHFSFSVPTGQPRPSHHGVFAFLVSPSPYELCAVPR", "design": "method as in PMID 31369707", "settings": "read-out: Inhibition of cytochrome P450 (IC50) CYP2D6; cited from earlier work"}, "CYP3A4-M": {"target": "CYP3A4-M (Homo sapiens, UniProt P08684)", "sequence (P08684 whole entry)": "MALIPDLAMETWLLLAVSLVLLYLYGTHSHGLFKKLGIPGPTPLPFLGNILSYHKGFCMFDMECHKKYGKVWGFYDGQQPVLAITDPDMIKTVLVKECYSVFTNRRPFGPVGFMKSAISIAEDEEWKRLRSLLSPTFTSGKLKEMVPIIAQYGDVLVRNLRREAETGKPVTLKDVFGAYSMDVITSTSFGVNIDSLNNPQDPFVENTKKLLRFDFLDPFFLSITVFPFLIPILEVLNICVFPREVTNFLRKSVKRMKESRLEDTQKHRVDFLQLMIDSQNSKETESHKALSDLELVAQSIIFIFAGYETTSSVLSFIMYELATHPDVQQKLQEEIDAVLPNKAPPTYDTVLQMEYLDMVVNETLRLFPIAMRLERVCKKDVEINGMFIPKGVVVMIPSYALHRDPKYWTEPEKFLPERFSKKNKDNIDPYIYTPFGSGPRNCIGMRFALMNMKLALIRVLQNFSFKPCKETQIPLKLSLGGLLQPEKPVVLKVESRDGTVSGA", "design": "method as in PMID 31369707", "settings": "read-out: Inhibition of cytochrome P450 (IC50) CYP3A4-M; cited from earlier work"}},
  "data": [
    {"smiles": "COc1ccc2nc3cc(Cl)ccc3c(Nc3ccc(O)c(CN4CCN(CCN(C)C)CC4)c3)c2c1", "note": "[Compound 4]", "values": [
      {"measurement": "levels of ERCC1 or XPF vs untreated cells", "setting": "[1]", "result": "no significant differences"},
      {"measurement": "CPD removal", "setting": "HCT-116 cells [2]", "result": 60, "unit": "%"},
      {"measurement": "PLA: inhibition of the interaction between ERCC1 and XPF (in words)", "setting": "[3]", "result": "clear inhibition of the interaction between ERCC1 and XPF"},
      {"measurement": "cell survival after UVC", "setting": "HCT-116 cells [4]", "result": "~ 50%"},
      {"measurement": "cell survival with cyclophosphamide", "setting": "HCT-116 cells [5]", "result": "about 75%"},
      {"measurement": "Metabolic stability in human liver microsomes (clearance)", "setting": "[6]", "result": "44.0 (mL/min/kg)"},
      {"measurement": "Metabolic stability in cryopreserved human hepatocytes (clearance)", "setting": "[7]", "result": 48.8, "unit": "mL/min/kg"},
      {"measurement": "Metabolic stability in cryopreserved human hepatocytes T1/2", "setting": "[7]", "result": 1.32, "unit": "h"},
      {"measurement": "IC50", "setting": "CYP2C9", "result": "> 50", "unit": "µM"},
      {"measurement": "IC50", "setting": "CYP2C19", "result": "> 50", "unit": "µM"},
      {"measurement": "IC50", "setting": "CYP2D6", "result": 16, "unit": "µM"},
      {"measurement": "IC50", "setting": "CYP3A4-M", "result": 37.1, "unit": "µM"}
    ]}
  ]
}
